Each structure is given as a SMILES string. Values joined by “and” are separate entries in the source; they are usually repeats but may differ in a detail not shown here. Equal entries are not always repeated.

Experiment [1] concerns adjuvant induced arthritis. In words: adjuvant induced arthritis test in the rat (primary and secondary lesions). It counts as in vivo, rat (Royal Hart, Wistar strain). As to the method:
(§1) Groups of three Royal Hart, Wistar strain rats, weighing 200±10 g. each were injected intradermally in the right hind paw with Freund's adjuvant (dried human tubercle bacilli in a mineral oil vehicle) at a dose of 2 mg./kg. of body weight. Test compositions were administered orally in a 1.5% starch vehicle at various doses once daily on days 0 through 13 post challenge. Control rats were treated in a similar manner, but given only starch vehicle. On the 14th, 21st, 28th and 35th days post challenge the diameter of the injected paw (primary lesion) was measured by micrometer caliper. The volume of inflamed paws were estimated from these measurements and the results are expressed as percent inhibition of swelling as compared to controls. At the same time, the other inflamed sites, such as ears, paws and tail (secondary lesions) were observed and each rat was graded as to degree of inflammation and swelling present. The grading is based on a scale of 0 to 24, where 0 represents a complete absence of induced arthritic modules and 24 represents the maximum degree of inflammation. The mean grade for each treated group is calculated and the effects of each test compound are expressed as percent inhibition of the control grade. The following Tables I-V record the results of tests conducted with the compositions of this invention and conventional anti-inflammatory agents both separately and in combination. All tests were replicated several times. Each treatment group represents a total of 18 rats. Each challenged control group comprised 36 rats and each unchallenged control group was 9 rats.

Experiment [2] in a line: body weight gain in the adjuvant induced arthritis test in the rat. It counts as in vivo, rat (Royal Hart, Wistar strain). The procedure:
as §1

Another experiment has as its system arthritic paw swelling. Particulars: S. Wong et al. 1973; G. R. Bobalick et al. 1974; cited from earlier work.
Where [3] appears, read: oral 0.25 mg/kg once daily, day 14, 0.25 mg/kg.
The mark [4] stands for this setting: oral 0.5 mg/kg once daily, day 14, 0.5 mg/kg.
The mark [5] stands for this setting: oral 0.5 mg/kg once daily, day 21, 0.5 mg/kg.
The mark [6] stands for this setting: oral 1.0 mg/kg once daily, day 14, 1 mg/kg.
Where [7] appears, read: oral 1.0 mg/kg once daily, day 21, 1 mg/kg.

Consider `COc1ccc2c(c1)c(CC(=O)O)c(C)n2C(=O)c1ccc(Cl)cc1` [Indomethacin, 1-(4-chlorobenzoyl)-5-methoxy-2-methyl-1H-indole-3-acetic acid, reference compound], for which the “Primary Lesions (% Inhibition)” value was 29% and 44% in experiment [1] (setting [3]); 50% and 41% in experiment [1] (setting [4]); 8% in experiment [1] (oral 0.5 mg/kg once daily, day 21); 63% and 57% in experiment [1] (setting [6]); 27% and 24% in experiment [1] (setting [7]). For the same molecule, the “Secondary Lesions (% Inhibition)” value in experiment [1] (setting [3]) was 22% and 25%; in experiment [1] (setting [5]), 10% and 3%; in experiment [1] (setting [6]), 54% and 48%; in experiment [1] (setting [7]) it was 30% and 27%. For the same molecule, the “Body Weight Gain in Grams” value was 59 Grams and 43 Grams in experiment [2] (setting [3]); 45 Grams and 46 Grams in experiment [2] (oral 0.25 mg/kg once daily, day 21, 0.25 mg/kg); 71 Grams and 61 Grams in experiment [2] (setting [4]); 57 Grams and 51 Grams in experiment [2] (setting [5]); 92 Grams and 76 Grams in experiment [2] (setting [6]); 84 Grams and 70 Grams in experiment [2] (setting [7]). Further, the arthritic paw swelling result in the experiment with arthritic paw swelling is “inhibit arthritic paw swelling”. Also, in the experiment on arthritic paw swelling, the “joint and bone deterioration” value is “prevent joint and bone deterioration”.

The values are drawn from patent US4325949A, “Combinations of agents which give enhanced anti-inflammatory activity” (American Cyanamid Company, priority 1980, dated 1982).
